The values below come from patent US8637510B2, “Morpholinothiazoles as alpha 7 positive allosteric modulators” (Janssen Pharmaceutica NV, priority 2009, dated 2014).

The structures appear in SMILES notation.

This test concerns the target T1, human alpha 7-wt nAChR (Homo sapiens, UniProt P36544).
T1 construct: expressed in transfected cells
Description: Ca2+ flux imaging (FDSS) (Protocol B). It counts as cell-based. The note with it: for EC50: potentiation of 100 μM choline, compounds 0.01 μM to 30 μM, read-out: a7-PAM-G_[33]_pEC50 pEC50 (converted); for Emax: efficacy of 100 μM choline defined as 100% in the absence of a PAM, read-out: a7-PAM-G_[33]_Eff_Curve_FI % Efficacy. On the procedure: Ca^2+ Flux Imaging (FDSS) (Protocol B)
• Hanks buffered saline solution (HBSS, Invitrogen, Belgium), supplemented with 10 mM HEPES (Invitrogen, Belgium), CaCl2 to a final concentration of 5 mM, 0.1% Bovine serum albumin (Sigma-Aldrich NV, Belgium). b) Calcium-Sensitive Dye—Fluo-4AM • Fluo-4AM (Molecular Probes, USA) was dissolved in DMSO containing 10% Pluronic acid (Molecular Probes, USA) to give a stock solution which was diluted in assay buffer supplemented with 5 mM probenicid (Sigma, Aldrich NV, Belgium) to give a final concentration of 2 μM. c) 384-Well Plates • Black-sided, transparent bottomed 384 well plates coated with poly-D-lysine, PDL pre-coated (Corning, Incorporated, USA) d) Calcium Flux Measurement • A Functional drug screening system (FDSS, Hamamatsu) was used to measure intracellular free-calcium flux signals. Method
Monolayers of human alpha 7-wt nAChR-expressing cells were grown in black-sided, transparent bottomed 384 well plates coated with PDL for 24 hours prior to loading with a fluorescent calcium indicator, fluo-4AM for up to 120 minutes.
PAM activity was detected in real time by applying the compounds to be tested to the loaded cells along with an alpha 7 nicotinic receptor agonist during constant monitoring of cellular fluorescence in a FDSS. Compounds giving peak fluorescent responses greater than the response due to agonist alone, were considered to be alpha 7 nAChR PAMs. The alpha 7 nicotinic receptor agonist was choline, applied at a sub-maximal concentration of 100 μM. In a further setting of the present invention the compounds were applied prior to the alpha 7 nicotinic receptor agonist, in a particular 10 minutes prior to the agonist.
A control response to choline was calculated on each plate from the difference in peak in fluorescence in wells receiving either choline or assay buffer alone. Compounds of the present invention were tested at a concentration range from 0.01 μM to 30 μM. Compounds were considered to have an interesting activity when they potentiated the choline signal at least with 200% when tested at a concentration of 30 μM (the efficacy of 100 μM choline was defined as 100% in the absence of a PAM). An EC50 (or pEC50) was determined as a concentration relating to half the maximal effect, when a clear sigmoidal curve with top plateau was obtained.
(Calcium flux is commonly read through the fluorescence of an indicator in the cells.)

T1 sequence (P36544 23-502): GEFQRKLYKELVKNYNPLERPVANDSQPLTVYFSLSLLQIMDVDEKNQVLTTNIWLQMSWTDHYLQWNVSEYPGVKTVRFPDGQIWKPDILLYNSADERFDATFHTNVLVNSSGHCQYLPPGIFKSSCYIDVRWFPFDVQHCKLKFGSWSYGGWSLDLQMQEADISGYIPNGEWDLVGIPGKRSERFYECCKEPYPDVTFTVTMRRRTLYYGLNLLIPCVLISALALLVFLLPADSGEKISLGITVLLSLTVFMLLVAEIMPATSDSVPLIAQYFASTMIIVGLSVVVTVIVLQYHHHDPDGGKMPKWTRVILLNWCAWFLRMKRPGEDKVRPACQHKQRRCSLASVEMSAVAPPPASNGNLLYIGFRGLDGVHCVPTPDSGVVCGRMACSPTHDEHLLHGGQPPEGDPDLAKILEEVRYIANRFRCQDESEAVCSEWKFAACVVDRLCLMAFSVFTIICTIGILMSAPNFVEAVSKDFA

With `Cc1cc(-c2sc(N3CC(C)OC(C)C3)nc2CNC(=O)CC2CC2)cc(C)n1` (racemic) [Compound 55, N-[[2-[2,6-dimethyl-4-morpholinyl]-5-(2,6-dimethyl-4-pyridinyl)-4-thiazolyl]methyl]-cyclopropaneacetamide], the EC50 is 794 nM.

Turning to `Cc1cc(-c2sc(N3C[C@@H](C)O[C@@H](C)C3)nc2CNC(=O)c2ccccc2F)cc(C)n1` [Compound 6, N-[[2-[(2R,6S)-2,6-dimethyl-4-morpholinyl]-5-(2,6-dimethyl-4-pyridinyl)-4-thiazolyl]methyl]-2-fluoro-benzamide], the Emax came to 313%. Consider `Cc1cc(-c2sc(N3C[C@@H](C)O[C@@H](C)C3)nc2CNC(=O)CC#N)cc(C)n1` [Compound 170, 2-cyano-N-[[2-[(2R,6S)-2,6-dimethyl-4-morpholinyl]-5-(2,6-dimethyl-4-pyridinyl)-4-thiazolyl]methyl]-acetamide], for which the Emax came out at 499% and the EC50 was 3090 nM. As to `Cc1cc(-c2sc(N3C[C@@H](C)O[C@@H](C)C3)nc2CNC(=O)CCC(F)(F)F)cc(C)n1` [Compound 128, N-[[2-[(2R,6S)-2,6-dimethyl-4-morpholinyl]-5-(2,6-dimethyl-4-pyridinyl)-4-thiazolyl]methyl]-4,4,4-trifluoro-butanamide], the EC50 is 51.3 nM. The same measure, in the same setting: in the case of `Cc1cc(-c2sc(N3C[C@@H](C)O[C@@H](C)C3)nc2CNC(=O)c2noc3ccccc23)cc(C)n1` [Compound 130, N-[[2-[(2R,6S)-2,6-dimethyl-4-morpholinyl]-5-(2,6-dimethyl-4-pyridinyl)-4-thiazolyl]methyl]-1,2-benzisoxazole-3-carboxamide] it was 309 nM. As for `Cc1cc(-c2sc(N3C[C@@H](C)O[C@@H](C)C3)nc2CNC(=O)CC(C)C)cc(C2CC2)n1` [Compound 110, N-[[5-(2-cyclopropy1-6-methyl-4-pyridinyl)-2-[(2R,6S)-2,6-dimethyl-4-morpholinyl]-4-thiazolyl]methyl]-3-methyl-butanamide], the Emax worked out at 957% and the EC50 was 12.3 nM.

Turning to `Cc1cc(-c2sc(N3C[C@@H](C)O[C@@H](C)C3)nc2CNC(=O)c2ccoc2C)cc(C)n1` [Compound 151, N-[[2-[(2R,6S)-2,6-dimethyl-4-morpholinyl]-5-(2,6-dimethyl-4-pyridinyl)-4-thiazolyl]methyl]-2-methyl-3-furancarboxamide], the EC50 is 871 nM.

Turning to `Cc1ccc(C(=O)NCc2nc(N3C[C@@H](C)O[C@@H](C)C3)sc2-c2cc(C)nc(C)c2)c(C)c1` [Compound 21, N-[[2-[(2R,6S)-2,6-dimethyl-4-morpholinyl]-5-(2,6-dimethyl-4-pyridinyl)-4-thiazolyl]methyl]-2,4-dimethyl-benzamide], the Emax came to 572% and the EC50 was 72.4 nM. For `Cc1cc(-c2sc(N3C[C@@H](C)O[C@@H](C)C3)nc2CNC(=O)c2conc2C)ccn1` [Compound 86, N-[[2-[(2R,6S)-2,6-dimethyl-4-morpholinyl]-5-(2-methyl-4-pyridinyl)-4-thiazolyl]methyl]-3-methyl-4-isoxazolecarboxamide] the same measures were 479% and 759 nM. For `Cc1cc(-c2sc(N3CCOC(C)(C)C3)nc2CNC(=O)c2cc(C)on2)cc(C)n1` [Compound 181, N-[[2-(2,2-dimethyl-4-morpholinyl)-5-(2,6-dimethyl-4-pyridinyl)-4-thiazolyl]methyl]-5-methyl-3-isoxazolecarboxamide] the same measures were 991% and 1910 nM. Consider `Cc1cc(-c2sc(N3C[C@@H](C)O[C@@H](C)C3)nc2CNC(=O)c2cc(C)nn2C)cc(C)n1` [Compound 136, N-[[2-[(2R,6S)-2,6-dimethyl-4-morpholinyl]-5-(2,6-dimethyl-4-pyridinyl)-4-thiazolyl]methyl]-1,3-dimethyl-1H-pyrazole-5-carboxamide], for which the EC50 is 1950 nM. For the compound `Cc1cc(-c2sc(N3C[C@@H](C)O[C@@H](C)C3)nc2CNC(=O)c2oc(C)cc2C)cc(C)n1` [Compound 173, N-[[2-[(2R,6S)-2,6-dimethyl-4-morpholinyl]-5-(2,6-dimethyl-4-pyridinyl)-4-thiazolyl]methyl]-3,5-dimethyl-2-furancarboxamide], the Emax turned out to be 425% and the EC50 was 776 nM.

Turning to `COCCC(=O)NCc1nc(N2C[C@@H](C)O[C@@H](C)C2)sc1-c1cc(C)nc(C)c1` [Compound 53, N-[[2-[(2R,6S)-2,6-dimethyl-4-morpholinyl]-5-(2,6-dimethyl-4-pyridinyl)-4-thiazolyl]methyl]-3-methoxy-propanamide], the EC50 is 2820 nM. Still for that read-out and setting: in the case of `Cc1cc(-c2sc(N3CCOC(C)(C)C3)nc2CNC(=O)C(C)C)cc(C)n1` [Compound 183, N-[[2-(2,2-dimethyl-4-morpholinyl)-5-(2,6-dimethyl-4-pyridinyl)-4-thiazolyl]methyl]-2-methyl-propanamide] it was 2750 nM. For the compound `Cc1cc(-c2sc(N3C[C@@H](C)O[C@@H](C)C3)nc2CNC(=O)C2CCCC2)cc(C)n1` [Compound 16, N-[[2-[(2R,6S)-2,6-dimethyl-4-morpholinyl]-5-(2,6-dimethyl-4-pyridinyl)-4-thiazolyl]methyl]-cyclopentanecarboxamide], the Emax was 651% and the EC50 was 22.4 nM. `Cc1cc(-c2sc(N3C[C@@H](C)O[C@@H](C)C3)nc2CNC(=O)c2scnc2C)cc(C)n1` [Compound 153, N-[[2-[(2R,6S)-2,6-dimethyl-4-morpholinyl]-5-(2,6-dimethyl-4-pyridinyl)-4-thiazolyl]methyl]-4-methyl-5-thiazolecarboxamide]: the EC50 was 2750 nM. In the case of `Cc1cc(-c2sc(N3C[C@@H](C)O[C@@H](C)C3)nc2CNC(=O)c2cccc(Cl)c2Cl)cc(C)n1` [Compound 26, 2,3-dichloro-N-[[2-[(2R,6S)-2,6-dimethyl-4-morpholinyl]-5-(2,6-dimethyl-4-pyridinyl)-4-thiazolyl]methyl]-benzamide], the Emax was found to be 631% and the EC50 is 141 nM. On to `Cc1cc(-c2sc(N3C[C@@H](C)O[C@@H](C)C3)nc2CNC(=O)c2cnccn2)cc(C)n1` [Compound 138, N-[[2-[(2R,6S)-2,6-dimethyl-4-morpholinyl]-5-(2,6-dimethyl-4-pyridinyl)-4-thiazolyl]methyl]-2-pyrazinecarboxamide], for which the Emax turned out to be 837% and the EC50 is 4680 nM. As to `Cc1cc(-c2sc(N3C[C@@H](C)O[C@@H](C)C3)nc2CNC(=O)C2CC2)cc(C2CC2)n1` [Compound 109, N-[[5-(2-cyclopropy1-6-methyl-4-pyridinyl)-2-[(2R,6S)-2,6-dimethyl-4-morpholinyl]-4-thiazolyl]methyl]-cyclopropanecarboxamide], the Emax is 826% and the EC50 was 224 nM. Regarding `Cc1cc(-c2sc(N3C[C@@H](C)O[C@@H](C)C3)nc2CNC(=O)C2(O)CC2)cc(C)n1` [Compound 176, N-[[2-[(2R,6S)-2,6-dimethyl-4-morpholinyl]-5-(2,6-dimethyl-4-pyridinyl)-4-thiazolyl]methyl]-1-hydroxy-cyclopropanecarboxamide], the Emax stood at 149%.

`COc1ccc(C(=O)NCc2nc(N3C[C@@H](C)O[C@@H](C)C3)sc2-c2cc(C)nc(C)c2)cc1` [Compound 30, N-[[2-[(2R,6S)-2,6-dimethyl-4-morpholinyl]-5-(2,6-dimethyl-4-pyridinyl)-4-thiazolyl]methyl]-4-methoxy-benzamide]: the Emax is 551% and the EC50 was 513 nM. Take `Cc1cc(-c2sc(N3C[C@@H](C)O[C@@H](C)C3)nc2CNC(=O)[C@@H]2CCCN2C)cc(C)n1` [Compound 52, (2S)-N-[[2-[(2R,6S)-2,6-dimethyl-4-morpholinyl]-5-(2,6-dimethyl-4-pyridinyl)-4-thiazolyl]methyl]-1-methyl-2-pyrrolidinecarboxamide]: the Emax amounted to 582% and the EC50 is 6170 nM. With `Cc1cc(CC(=O)NCc2nc(N3C[C@@H](C)O[C@@H](C)C3)sc2-c2cc(C)nc(C)c2)on1` [Compound 167, N-[[2-[(2R,6S)-2,6-dimethyl-4-morpholinyl]-5-(2,6-dimethyl-4-pyridinyl)-4-thiazolyl]methyl]-3-methyl-5-isoxazoleacetamide], the EC50 is 1230 nM.

For `Cc1cc(-c2sc(N3CCOC[C@@H]3C)nc2CNC(=O)C(C)C)cc(C)n1` [Compound 188, N-[[5-(2,6-dimethyl-4-pyridinyl)-2-[(3S)-3-methyl-4-morpholinyl]-4-thiazolyl]methyl]-2-methyl-propanamide], the Emax came out at 685% and the EC50 was 5010 nM.
